Reference: patent US11639503B2, “Anti-chymase aptamer and use for same” (RIBOMIC INC., priority 2017, dated 2023)

Biological target: T1, chymase purified from human skin mast cell (native, Calbiochem) (Homo sapiens, UniProt P23946)
T1 construct: Here, the native is chymase purified from human skin mast cell; purchased Calbiochem; host or cells: human skin mast cell (tissue-derived)
T1 sequence (P23946 22-247): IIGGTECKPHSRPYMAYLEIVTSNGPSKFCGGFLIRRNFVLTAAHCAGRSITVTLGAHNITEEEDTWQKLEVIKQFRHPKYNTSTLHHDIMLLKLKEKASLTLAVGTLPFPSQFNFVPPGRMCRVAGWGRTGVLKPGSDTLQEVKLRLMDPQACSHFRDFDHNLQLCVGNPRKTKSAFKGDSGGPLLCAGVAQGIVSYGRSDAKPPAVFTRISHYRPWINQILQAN
Assay: chymase enzyme activity inhibition, native substrate angiotensin I (His-Leu fluorescence)
Type: biochemical
Details: angiotensin I as substrate, mean of 2 or 3 measurements
Description: A second method of evaluation employs a native substrate. A useful native substrate for chymase is angiotensin I. Here, His-Leu, a peptide fragment released upon degradation of angiotensin I, is fluorescently derivatized, and the fluorescence intensity therefrom is quantified.
In the assay, an enzyme reaction is carried out in 50 μL of solution C. First, 0.3-0.75 ng of chymase (recombinant, manufactured by SIGMA; or native, manufactured by Calbiochem) is diluted in solution C to obtain 5 μL chymase solution. Each nucleic acid is prepared in solution C to obtain 25 μL solutions. 5 μL of each chymase dilution and 25 μL of each nucleic acid solution are mixed, and then the mixture is incubated at 37° C. for 5 minutes. Separately, 20 μL of 125 μM angiotensin I (manufactured by Peptide Institute, Inc.) is prepared in solution C and incubated at 37° C. for 5 minutes. The angiotensin I solution is added to the mixture of chymase and nucleic acid, and the enzyme reaction is initiated. After the reaction was allowed to proceed at 37° C. for 90 minutes, 25 μL of ice-cooled 30% trichloroacetic acid solution is added to terminate the reaction. The entire mixture is centrifuged at 4° C., 14000 rpm for 10 minutes, and 30 μL of the resulting supernatant is used for the subsequent reaction for fluorescent derivatization.
After 30 μL of the supernatant is added to a 96-well plate (Black, manufactured by Costar), 15 μL of 2% o-phthalaldehyde (manufactured by SIGMA) solution in methanol and 170 μL of 0.3M NaOH solution are mixed in each well, and the plate is allowed to stand at room temperature for 10 minutes. Subsequently, 25 μL of 3M HCl solution is added to terminate the reaction. The plate is set to the microplate reader SpectraMax190 (manufactured by Molecular Devices Corporation), and the fluorescence intensity is determined at an excitation wavelength of 355 nm and a fluorescence wavelength of 460 nm.
For control, samples are treated and analyzed in the same manner in two cases: use of SEQ ID NO: 58 (negative control) and use of chymostatin, a known chymotrypsin-like serine protease inhibitor (positive control). In both cases, fluorescence intensity obtained at 0 minute reaction time serves as a blank determination. Taking the fluorescence intensity detected with the addition of an equal volume of solution C, in place of each nucleic acid, in the chymase enzyme reaction as 100%, the inhibitory rate for each test substance is calculated, and the inhibitor concentration required to cause a 50% inhibition of the enzyme activity (IC50) is determined.
Whether the nucleic acids shown by SEQ ID NO: 9 and 10 inhibit the enzyme activity of chymase was determined by the following method. Angiotensin I is converted by chymase to angiotensin II, during which a peptide fragment His-Leu is released. Since the peptide His-Leu is fluorescently derivatized by o-phthalaldehyde, its fluorescence intensity can be quantitatively measured.
The total volume of solution for an enzyme reaction in the assay was set to 50 μL, and the reaction was performed in solution C buffer. At first, native (manufactured by Calbiochem) was diluted with solution C to give 5 μL thereof. Here, the native is chymase purified from human skin mast cell. The nucleic acid was serially diluted with solution C at a concentration of 0.0027-2 μM to give 25 μL thereof. The chymase solution (5 μL) and the nucleic acid solution (25 μL) were mixed, and the mixture was incubated at 37° C. for 5 min. On the other hand, […] angiotensin I (manufactured by PEPTIDE INSTITUTE, INC.) was prepared in solution C to give 20 μL thereof, which was incubated at 37° C. for 5 min. The angiotensin I solution was added to a mixture of chymase and nucleic acid to start an enzyme reaction. The final chymase concentration of the reaction solution was 0.5 nM, and the final substrate concentration was 50 μM. […]

[1] = Table 3, >1 = no inhibitory activity up to 1 μM

Substance	IC50 (Table 4)	IC50 (Table 6)	IC50 [1]
17(3) (GAUGAUCGGACAUAACAUUGUUGGGGUGUCAA; aptamer; 2'-O-methyl, idT end and other modifications, positions not given here)	5.66 nM	–	–
33(15) (AUGAUCGGACAUAACUAAUUAGGGGUGUCAA; aptamer; modified variant with 2'-O-methyl and end modifications, pattern not given here)	–	0.072 nM	–
33(8) (AUGAUCGGACAUAACUAAUUAGGGGUGUCAA; aptamer; modified variant with 2'-O-methyl and end modifications, pattern not given here)	–	0.061 nM	–
17(5) (GAUGAUCGGACAUAACAUUGUUGGGGUGUCAA; aptamer; 2'-O-methyl, idT end and other modifications, positions not given here)	0.17 nM	–	–
33(3) (AUGAUCGGACAUAACUAAUUAGGGGUGUCAA; aptamer; modified variant with 2'-O-methyl and end modifications, pattern not given here)	–	0.071 nM	–
33(13) (AUGAUCGGACAUAACUAAUUAGGGGUGUCAA; aptamer; modified variant with 2'-O-methyl and end modifications, pattern not given here)	–	0.069 nM	–
17(17) (GAUGAUCGGACAUAACAUUGUUGGGGUGUCAA; aptamer; 2'-O-methyl, idT end and other modifications, positions not given here)	0.19 nM	–	–
33(2) (AUGAUCGGACAUAACUAAUUAGGGGUGUCAA; aptamer; modified variant with 2'-O-methyl and end modifications, pattern not given here)	–	0.078 nM	–
33 (AUGAUCGGACAUAACUAAUUAGGGGUGUCAA; aptamer; listed as RNA, chemistry not fully specified) [compound 33]	–	0.21 nM	–
11 (GGGUCAGAUGAUCGGACAUAACAUUGUUGGGGUGUCAAGGCCC; 2'-fluoro at CU, RNA at AG, backbone not given here) [compound 11]	–	–	54.7 nM
33(1) (AUGAUCGGACAUAACUAAUUAGGGGUGUCAA; aptamer; modified variant with 2'-O-methyl and end modifications, pattern not given here)	–	0.074 nM	–
17(10) (GAUGAUCGGACAUAACAUUGUUGGGGUGUCAA; aptamer; 2'-O-methyl, idT end and other modifications, positions not given here)	0.13 nM	–	–
17 (GAUGAUCGGACAUAACAUUGUUGGGGUGUCAA; 2'-fluoro at CU, RNA at AG, backbone not given here) [compound 17]	1.4 nM	1.4 nM	1.4 nM
33(7) (AUGAUCGGACAUAACUAAUUAGGGGUGUCAA; aptamer; modified variant with 2'-O-methyl and end modifications, pattern not given here)	–	0.071 nM	–
33(5) (AUGAUCGGACAUAACUAAUUAGGGGUGUCAA; aptamer; modified variant with 2'-O-methyl and end modifications, pattern not given here)	–	0.076 nM	–
17(15) (GAUGAUCGGACAUAACAUUGUUGGGGUGUCAA; aptamer; 2'-O-methyl, idT end and other modifications, positions not given here)	0.13 nM	–	–
17(21) (GAUGAUCGGACAUAACAUUGUUGGGGUGUCAA; aptamer; 2'-O-methyl, idT end and other modifications, positions not given here)	0.19 nM	–	–

Substance	IC50 (Table 4)	IC50 (Table 6)	IC50 [1]
33(16) (AUGAUCGGACAUAACUAAUUAGGGGUGUCAA; aptamer; modified variant with 2'-O-methyl and end modifications, pattern not given here)	–	0.063 nM	–
33(4) (AUGAUCGGACAUAACUAAUUAGGGGUGUCAA; aptamer; modified variant with 2'-O-methyl and end modifications, pattern not given here)	–	0.072 nM	–
17(20) (GAUGAUCGGACAUAACAUUGUUGGGGUGUCAA; aptamer; 2'-O-methyl, idT end and other modifications, positions not given here)	0.18 nM	–	–
20 (GAUGAUCGGACAUAACAUUGUUGGGGUGUCA; 2'-fluoro at CU, RNA at AG, backbone not given here) [compound 20]	–	–	1.8 nM
17(23) (GAUGAUCGGACAUAACAUUGUUGGGGUGUCAA; aptamer; 2'-O-methyl, idT end and other modifications, positions not given here)	0.16 nM	–	–
17(24) (GAUGAUCGGACAUAACAUUGUUGGGGUGUCAA; aptamer; 2'-O-methyl, idT end and other modifications, positions not given here)	0.19 nM	–	–
17(18) (GAUGAUCGGACAUAACAUUGUUGGGGUGUCAA; aptamer; 2'-O-methyl, idT end and other modifications, positions not given here)	0.15 nM	–	–
17(8) (GAUGAUCGGACAUAACAUUGUUGGGGUGUCAA; aptamer; 2'-O-methyl, idT end and other modifications, positions not given here)	0.13 nM	–	–
17(16) (GAUGAUCGGACAUAACAUUGUUGGGGUGUCAA; aptamer; 2'-O-methyl, idT end and other modifications, positions not given here)	0.18 nM	–	–
17(7) (GAUGAUCGGACAUAACAUUGUUGGGGUGUCAA; aptamer; 2'-O-methyl, idT end and other modifications, positions not given here)	0.17 nM	–	–
12 (GACAUAACAUUGUUGGGGUGUC; 2'-fluoro at CU, RNA at AG, backbone not given here) [compound 12]	–	–	> 1000 nM
17(9) (GAUGAUCGGACAUAACAUUGUUGGGGUGUCAA; aptamer; 2'-O-methyl, idT end and other modifications, positions not given here)	0.16 nM	–	–
13 (GGACAUAACAUUGUUGGGGUGUCAAGG; 2'-fluoro at CU, RNA at AG, backbone not given here) [compound 13]	–	–	> 1000 nM
33(14) (AUGAUCGGACAUAACUAAUUAGGGGUGUCAA; aptamer; modified variant with 2'-O-methyl and end modifications, pattern not given here)	–	0.075 nM	–
18 (UGAUCGGACAUAACAUUGUUGGGGUGUCAA; 2'-fluoro at CU, RNA at AG, backbone not given here) [compound 18]	–	–	2.1 nM
33(11) (AUGAUCGGACAUAACUAAUUAGGGGUGUCAA; aptamer; modified variant with 2'-O-methyl and end modifications, pattern not given here)	–	0.051 nM	–
33(9) (AUGAUCGGACAUAACUAAUUAGGGGUGUCAA; listed as RNA, chemistry not fully specified)	–	1.35 nM	–
